For one assay, the system named is A2058 melanoma cells. Description: MTS cell viability (cytotoxicity) assay, A2058 melanoma cells. The assay is classed as cell-based, human. The conditions noted are these: 48 h treatment. The method, then: (§1) DU-145 human prostate cancer and A2058 melanoma cell lines were obtained from ATCC. These cells were cultured in RPMI-1640 or DMEM medium containing 10% fetal bovine serum (FBS), 100 units/mL penicillin, and 100 μg/mL streptomycin. All cells were maintained in a 5% CO2 atmosphere at 37° C. To determine the viability of the cells, Promega CellTiter 96 aqueous nonradioactive cell proliferation assays (MTS) were performed as described by the supplier (Promega; Madison, Wis.). Briefly, cells (5000/well) were seeded in 96-well plates and incubated overnight at 37° C. in 5% CO2. Cells were treated for 48 h with each compound. The concentration used was 10 μM. Dimethyl sulfoxide (DMSO) was used as the vehicle control. IC50 values of compounds were determined in a dose-dependent manner (0.1, 0.5, 1, 5, 10, 20, and 50 μM). Cell viability was determined by tetrazolium conversion to its formazan dye, and absorbance of formazan was measured at 490 nm using an automated ELISA plate reader. The production of formazan dye was directly proportional to the number of living cells. Each experiment was done in quadruplicate in the absence of a positive control.

The subject of assay [1] is DU-145 human prostate cancer cells. In words: MTS cell viability (cytotoxicity) assay, DU-145 prostate cancer cells. Particulars: 48 h treatment. The assay is classed as cell-based. The protocol: as §1

With “plakortinic acid B methyl ester [compound 4]”, the IC50 (usually the point on the concentration scale where inhibition reaches its midpoint) with A2058 melanoma cells was found to be 4700 nM; in assay [1], 5.9 µM.

For the substance plakortinic acid A [compound 2], the values for the IC50 (in the assay on A2058 melanoma cells; in assay [1]) were 300 nM and 0.5 µM, respectively.

The values above are taken from patent publication US11198678B1, “Plakortinic acids A and B: cytotoxic cycloperoxides with a unique bicyclo[4.2.0]octene unit from sponges of the genera Plakortis and Xestospongia” (University of Puerto Rico, priority 2016, dated 2021).
